The text below walks through data of article PMC9299702, “Maytansinol Derivatives: Side Reactions as a Chance for New Tubulin Binders” (Chemistry (Weinheim an Der Bergstrasse, Germany), 2021).

Like-named read-outs stand apart in the source and are kept apart here. Some results are limits rather than exact numbers.

In experiment [1] the target is T1, maytansine site of tubulin (Bos taurus, UniProt Q6B856).
T1 construct: Purified calf brain tubulin and chemicals were obtained as previously described; from tissue; host or cells: calf brain
Put plainly: biochemical. It is filed as binding, calf.

For experiment [2], the system named is A549 cells. Put plainly: Cytotoxicity (antiproliferation assay) in A549. It is filed as cell-based, human.
Experiment [3] addresses T2, tubulin (Bos taurus, UniProt Q6B856).
T2 construct: Purified calf brain tubulin and chemicals were obtained as previously described; from tissue; host or cells: calf brain
Put plainly: Inhibition of tubulin assembly (turbidity time courses). The following applies: 25 μM tubulin in GAB, 27.5 μM compound, stoichiometric ratio. It is filed as biochemical, calf.

Experiment [4] concerns A549 cells. Put plainly: Effects on cellular microtubules by immunofluorescence microscopy. To be noted: fluorescence microscopy; for concentration at which the microtubule destabilizing effect is observed in interphasic cells: interphase; for concentration at which the microtubule destabilizing effect is observed in mitotic cells: mitosis. Type of experiment: cell-based, human.
Description: To do so, we performed fluorescence microscopy using A549 cells.
The effect of these compounds on the microtubule network and mitotic spindle was characterized in A549 tumor cells by fluorescence microscopy. […] Cells were immunostained for A)–I) α‐tubulin or A’)–I’) DNA, and A’’)–I’’) the images obtained were merged (tubulin in green and DNA in magenta). A)–A’’) Interphase cell treated with DMSO; notice the regular microtubule network evenly distributed in the cytoplasm. B)–B’’) Control metaphase cell with a normally distributed bipolar mitotic spindle in which all chromosomes are positioned in the metaphase plate. […] All images are shown at the same scale; scale bar: 10 μm.
In interphase the microtubule network covers the whole cytoplasm, while in dividing cells during metaphase there are regular bipolar spindles that allow the correct positioning and segregation of chromosomes in the subsequent division steps.
Indirect immunofluorescence images were obtained using A549 cells plated at a density of 130,000 cells/ml onto 12mm

For experiment [5], the system named is A2780AD cells. Put plainly: Cytotoxicity (antiproliferation assay) in A2780AD (pGp overexpressing). It is filed as cell-based, human. To be noted: for IC50: read-out: IC50 A2780AD; for R/S (resistance index): A2780AD versus A2780.
Experiment [6] relates to A2780 cells. Put plainly: Cytotoxicity (antiproliferation assay) in A2780. It is filed as cell-based, human.
The test system of experiment [7] is tubulin. Further details: method as in PMID 21043240. To be noted: compared with maytansine; cited from earlier work.
Where [8] appears, read: competition against Fc maytansine.
The mark [9] stands for this setting: Homo sapiens, A549 cell line, read-out: IC50 A549.
The mark [10] stands for this setting: Homo sapiens, A2780AD cell line, pGp overexpressing.
Where [11] appears, read: Homo sapiens, A2780 cell line, read-out: IC50 A2780.
Setting [12] is: competition against Fc maytansine, read-out: K d.
Where [13] appears, read: A549 cell line, read-out: IC50 A549.
[14] abbreviates: A2780AD cell line, pGp overexpressing.
Where [15] appears, read: A2780 cell line, read-out: IC50 A2780.
Where [16] appears, read: Homo sapiens, A549, read-out: IC50 A549.
Setting [17] is: Homo sapiens, A2780, read-out: IC50 A2780.

T2 sequence (Q6B856 whole entry): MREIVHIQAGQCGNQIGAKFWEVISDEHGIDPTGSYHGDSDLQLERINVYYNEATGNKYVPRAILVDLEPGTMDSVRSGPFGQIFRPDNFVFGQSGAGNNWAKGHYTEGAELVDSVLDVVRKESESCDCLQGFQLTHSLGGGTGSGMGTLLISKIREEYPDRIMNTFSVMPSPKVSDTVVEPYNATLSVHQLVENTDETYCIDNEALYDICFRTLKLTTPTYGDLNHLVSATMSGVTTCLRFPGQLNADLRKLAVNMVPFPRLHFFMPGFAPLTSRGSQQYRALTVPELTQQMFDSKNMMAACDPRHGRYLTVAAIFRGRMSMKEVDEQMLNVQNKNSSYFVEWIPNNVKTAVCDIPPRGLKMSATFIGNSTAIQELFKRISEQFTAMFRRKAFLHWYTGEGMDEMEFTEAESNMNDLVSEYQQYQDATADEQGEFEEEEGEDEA
T2 sequence (P81947 whole entry partner): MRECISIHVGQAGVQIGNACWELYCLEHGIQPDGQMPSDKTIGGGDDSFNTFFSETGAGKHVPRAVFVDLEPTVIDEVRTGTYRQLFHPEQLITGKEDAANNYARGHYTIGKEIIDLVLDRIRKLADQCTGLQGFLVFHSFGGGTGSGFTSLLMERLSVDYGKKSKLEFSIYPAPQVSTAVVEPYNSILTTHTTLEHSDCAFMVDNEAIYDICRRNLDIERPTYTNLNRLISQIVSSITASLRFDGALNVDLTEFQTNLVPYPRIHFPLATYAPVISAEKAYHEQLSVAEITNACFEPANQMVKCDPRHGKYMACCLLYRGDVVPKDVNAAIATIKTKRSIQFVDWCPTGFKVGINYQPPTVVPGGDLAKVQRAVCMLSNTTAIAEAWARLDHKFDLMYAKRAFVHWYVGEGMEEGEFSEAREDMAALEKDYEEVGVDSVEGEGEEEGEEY
T1 sequence (Q6B856 whole entry): as the sequence (Q6B856 whole entry) above
T1 sequence (P81947 whole entry partner): as the sequence (P81947 whole entry partner) above

Broadly, the IC50 is the concentration that gives 50% inhibition. Regarding `COc1cc2cc(c1Cl)N(C)C(=O)C[C@H](OC(=O)[C@H](C)N(C)C(C)=O)[C@]1(C)O[C@H]1[C@H](C)[C@@H]1C[C@@](O)(NC(=O)O1)[C@H](OC)/C=C/C=C(\C)C2` [1 a, Maytansine, reference compound], the Kd in experiment [1] is 14 ± 2 nM. The “Mean K b” value in experiment [1] (setting [8]) was 9.0±1.3×10^7 M^−1. Besides, the figures for the IC50 in experiment [2] (setting [9]), in experiment [5] (setting [10]) and in experiment [6] (setting [11]) were 0.278 ± 0.04 nM, 19.5 ± 1.14 nM and 0.31 ± 0.02 nM, respectively. Further, the “Inhibition of tubulin assembly” value in experiment [3] is “completely abolishes tubulin polymerization”. Also, in experiment [4], the “concentration at which the microtubule destabilizing effect is observed in interphasic cells” value (shortened to “concentration … in interphasic cells”) is 5 nM. Also, in experiment [4], the “concentration at which the microtubule destabilizing effect is observed in mitotic cells” value (from here on “concentration … in mitotic cells”) was 5 nM.
The compound `COc1cc2cc(c1Cl)N(C)C(=O)CC(O)C1(C)OC1C(C)C1CC(O)(NC(=O)O1)C(OC)/C=C/C=C(\C)C2` (centres unmarked) [1 b, Maytansinol] registered a Kd in experiment [1] of 780 ± 40 nM. Moreover, in experiment [1] (setting [8]), the “Mean K b” value is 1.30±0.06×10^6 M^−1. For the same compound, the IC50 in experiment [2] (setting [9]) turned out to be 60 ± 3 nM; in experiment [5] (setting [10]), 1460 ± 148 nM; in experiment [6] (setting [11]), 23.8 ± 1.65 nM. In addition, in experiment [3], the “Inhibition of tubulin assembly” value is reported as “noticeable effect at stoichiometric concentrations”. The “concentration … in interphasic cells” value in experiment [4] came to 100 nM. Moreover, the “concentration … in mitotic cells” value in experiment [4] was 50 nM. Also, the “inhibitory activity on tubulin polymerization” value in experiment [7] is “weaker inhibitory activity on tubulin polymerization than maytansine”.
In the case of `COc1cc2cc(c1Cl)N(C)C(=O)C[C@H](OC(=O)c1ccccc1)[C@]1(C)O[C@H]1[C@H](C)[C@@H]1C[C@@](O)(NC(=O)O1)[C@H](OC)/C=C/C=C(\C)C2` [4 a], the “Mean K b” value in experiment [1] (setting [8]) is listed as 2.0±0.×10^7 M^−1. Besides, the Kd in experiment [1] (setting [12]) was determined as 51 ± 3 nM. Also, the IC50 came out at 0.24 ± 0.03 nM in experiment [2] (setting [13]), 11 ± 1 nM in experiment [5] (setting [14]) and 0.11 ± 0.01 nM in experiment [6] (setting [15]). Moreover, the “concentration … in interphasic cells” value in experiment [4] is 10 nM. Besides, the “concentration … in mitotic cells” value in experiment [4] turned out to be 5 nM. In experiment [5], the “R/S (resistance index)” value stood at 100.
With `COc1cc2cc(c1Cl)N(C)C(=O)CC(OC(C)=O)C1(C)OC1C(C)C1CC(O)(NC(=O)O1)C(OC)C=CC=C(C)C2` (centres unmarked) [4 b], the “Mean K b” value in experiment [1] (setting [8]) was 9±1×10^7 M^−1. In experiment [1] (setting [12]), the Kd stood at 11 ± 1 nM. Moreover, the values for the IC50 in experiment [2] (setting [13]), in experiment [5] (setting [14]) and in experiment [6] (setting [15]) were 1.2 ± 0.3 nM, 20 ± 1 nM and 0.25 ± 0.01 nM, respectively. In experiment [5], the “R/S (resistance index)” value is on record as 80.
As to `C#CCCCCC(=O)OC1CC(=O)N(C)c2cc(cc(OC)c2Cl)CC(C)=CC=CC(OC)C2(O)CC(OC(=O)N2)C(C)C2OC12C` (centres unmarked) [4 c], the “Mean K b” value in experiment [1] (setting [8]) is 5.4±0.5×10^7 M^−1. In addition, the Kd in experiment [1] (setting [12]) was 20 ± 2 nM. Also, the IC50 in experiment [2] (setting [13]) is 0.07 ± 0.008 nM; in experiment [5] (setting [14]), 4.7 ± 0.6 nM; in experiment [6] (setting [15]), 0.033 ± 0.003 nM. The “R/S (resistance index)” value in experiment [5] is recorded as 142.
On to `COc1cc2cc(c1Cl)N(C)C(=O)CC(OC(=O)c1ccccc1)C1(C)OC1C(C)C1C=C(NC(=O)O1)C(OC)C=CC=C(C)C2` (centres unmarked) [5 a], for which the “Mean K b” value in experiment [1] (setting [8]) is 9.2±0.3×10^5 M^−1. In addition, the Kd in experiment [1] (setting [12]) was 1090 ± 40 nM. The IC50 in experiment [2] (setting [13]) was above 570 nM; in experiment [5] (setting [14]), 2630 ± 187 nM; in experiment [6] (setting [15]), 338 ± 4.65 nM. The “Inhibition of tubulin assembly” value in experiment [3] is “strong inhibitors that completely abolished microtubule assembly”.
With `COc1cc2cc(c1Cl)N(C)C(=O)CC(OC(C)=O)C1(C)OC1C(C)C1C=C(NC(=O)O1)C(OC)C=CC=C(C)C2` (centres unmarked) [5 b], the “Mean K b” value in experiment [1] (setting [8]) was 1.17±0.04×10^6 M^−1. Besides, the Kd in experiment [1] (setting [12]) came to 860 ± 30 nM. The IC50 in experiment [2] (setting [13]) is 190 ± 40 nM; in experiment [5] (setting [14]), above 6160 nM; in experiment [6] (setting [15]), 130 ± 20 nM. Further, the “Inhibition of tubulin assembly” value in experiment [3] is reported as “strong inhibitors that completely abolished microtubule assembly”.
For the compound `C#CCCCCC(=O)OC1CC(=O)N(C)c2cc(cc(OC)c2Cl)CC(C)=CC=CC(OC)C2=CC(OC(=O)N2)C(C)C2OC12C` (centres unmarked) [5 c], in experiment [1] (setting [8]), the “Mean K b” value is recorded as 5.6±0.4×10^5 M^−1. The Kd in experiment [1] (setting [12]) stood at 1800 ± 120 nM. Besides, the values for the IC50 in experiment [2] (setting [13]), in experiment [5] (setting [14]) and in experiment [6] (setting [15]) were 320 ± 40 nM, above 7960 nM and 225 ± 15 nM, respectively. Besides, the “Inhibition of tubulin assembly” value in experiment [3] is on record as “mild”.
Consider `COc1cc2cc(c1Cl)N(C)C(=O)CC(O)C1(C)OC1C(C)C1C=C(C(OC)C=CC=C(C)C2)N(C(=O)c2ccccc2)C(=O)O1` (centres unmarked) [6 a], for which, in experiment [1] (setting [8]), the “Mean K b” value is listed as 6±2×10^5 M^−1. Further, the IC50 in experiment [2] (setting [13]) was above 1030 nM; in experiment [5] (setting [14]) it was 13500 ± 623 nM; in experiment [6] (setting [15]) it was 2090 ± 99 nM. In addition, the “Inhibition of tubulin assembly” value in experiment [3] is given as “strong inhibitors that completely abolished microtubule assembly”.
For the compound `COc1cc2cc(c1Cl)N(C)C(=O)CC(OC(=O)c1ccccc1)C1(C)OC1C(C)C1C=C(C(OC)C=CC=C(C)C2)N(C(=O)c2ccccc2)C(=O)O1` (centres unmarked) [7 a], in experiment [1] (setting [8]), the “Mean K b” value is reported as 5.0±0.5×10^5 M^−1. Moreover, the Kd in experiment [1] (setting [12]) was 2000 ± 200 nM. Also, the IC50 in experiment [2] (setting [13]) came to 47 ± 6 nM; in experiment [5] (setting [14]), 3500 ± 320 nM. Moreover, the “Inhibition of tubulin assembly” value in experiment [3] was “mild”.
For the compound `COc1cc2cc(c1Cl)N(C)C(=O)CC(O)C1(C)OC1C(C)C=CC(=O)C(OC)C=CC=C(C)C2` (centres unmarked) [Compound 2], in experiment [1] (setting [8]), the “Mean K b” value is given as 1.42±0.08×10^6 M^−1. The Kd in experiment [1] (setting [12]) stood at 720 ± 50 nM. The IC50 in experiment [2] (setting [16]) is 15 ± 2 nM; in experiment [5] (Homo sapiens, A2780AD) it was 981 ± 201 nM; in experiment [6] (setting [17]), 9.64 ± 0.97 nM. In experiment [3], the “Inhibition of tubulin assembly” value is “weak inhibition”.
On to `COc1cc2cc(c1Cl)N(C)C(=O)CC(O)C1(C)OC1C(C)C1C=C(NC(=O)O1)C(OC)C=CC=C(C)C2` (centres unmarked) [Compound 3], for which the “Mean K b” value in experiment [1] (setting [8]) is on record as 1.20±0.03×10^6 M^−1. The Kd in experiment [1] (setting [12]) was 830 ± 20 nM. The IC50 in experiment [2] (setting [16]) was 28 ± 2 nM; in experiment [5] (Homo sapiens, A2780AD), above 19700 nM; in experiment [6] (setting [17]) it was 74 ± 4 nM. For the same compound, the “Inhibition of tubulin assembly” value in experiment [3] is “mild”.
